{
  "source": "patent US8106056B2",
  "about": "“Combination preparations comprising bifeprunox and a dopamine agonist” (Solvay Pharmaceuticals B.V., priority 2006, dated 2012)",
  "key": {"[1]": {"tested_on": "MPTP-treated common marmosets", "assay": "Locomotor activity in MPTP-treated common marmosets (automated activity cages)", "assay_type": "in vivo, common marmosets (Callithrix jacchus)", "method": "(§1) These animals were L-DOPA responsive and not test drug naive. They had not been experimentally primed for dyskinesia although some dyskinesia was present.\n(§2) Drug treatment: Bifeprunox mesylate was suspended in 10% sucrose solution and administered orally by gavage in a volume of 2.0 ml/kg. L-DOPA: L-3,4-Dihydroxyphenylalanine (L-dopa) methylester (Sigma Chemical Co, UK) was dissolved in 10% sucrose solution and administered orally by gavage in a volume of 2.0 ml/kg. Carbidopa: (Merck, Sharp and Dohme, UK) was administered orally as a suspension in 10% sucrose solution in a volume of 2.0 ml/kg. Domperidone: (2.0 mg/kg po, Sigma UK) was dissolved in 10% sucrose and administered 60 min prior to bifeprunox in a volume of 2.0 ml/kg, Bifeprunox (4 or 8 mg/kg po free base) or its vehicle (10% sucrose) was administered alone and in combination with L-DOPA (7.5 mg/kg po free base, given in combination with carbidopa, 12.5 mg/kg po) to MPTP-treated marmosets (n=6). Animals were treated with bifeprunox or its vehicle 90 min prior to administration of L-DOPA or its vehicle administration. Carbidopa was administered 30 minutes prior to administration of L-DOPA. Domperidone was administered 60 min prior to bifeprunox administration.\nBehavioral Studies: In all studies, animals were acclimatised to behavioral study cages for 1 hour prior to treatment. The animals were placed individually into activity cages (50×60×70 cm) fitted with a clear perspex door to allow clear visibility for observation. Each cage was equipped with 8 horizontally orientated infrared photocell emitters and their corresponding detectors arranged so as to permit maximum assessment of movement. Locomotor activity was assessed as the number of light beam interruptions caused by movement of the animals accumulated in 10-minute intervals for up to 7 hours. The animals were allowed a 60-minute acclimatisation period in the activity cages during which baseline activity was assessed, before drug administration. ‘On’ Threshold was defined as 3 times baseline activity in MPTP-treated marmosets. Hyperactivity was defined as 3 times normal activity in naive marmosets. ‘On’ time was the period of time in minutes that activity was above the ‘On’ Threshold. Animals were treated with bifeprunox, vehicle and/or L-DOPA. Following drug treatment, animals were assessed for locomotor activity and disability as described below for up to 6 h following drug administration. The animals used in the study were in the automated activity cages for no longer than 8 h on any study day, and were allowed at least 3 days recovery period between drug treatments to ensure appropriate animal welfare consideration. The locomotor activity, motor disability and presence of dyskinesia were assessed as follows:\nLocomotor Activity: In all studies the animals were acclimatised to behavioral study cages for 1 hour prior to bifeprunox treatment. Animals were then treated with appropriate drugs. Following treatment, animals were assessed for antiparkinsonian activity for up to 6 h using automated activity cages and by the rating of disability by an observer blinded to the treatment.\n(§3) Data and Statistical Analysis: Data are presented as median locomotor activity (counts/30 min) or disability score (score over 10 min/30 min) over the 7 hour period of the experiment, or as total locomotor activity (counts/420 min) or disability (total score over 420 min). Data were analysed by Kruskall Wallis ANOVA and post-hoc Man-Whitney test where appropriate. Analyses were corrected for multiple comparisons using the formula: Acceptable probability=α/number of comparisons where α=5% A separate group of animals from those used in the study were treated with vehicle and were used for statistical comparison."}, "dopamine D2/3 receptors": {"tested_on": "dopamine D2/3 receptors", "settings": "cited from earlier work"}, "[2]": {"biological_target": "T1, serotonin 5-HT1A receptors (Homo sapiens, UniProt P08908)", "T1 sequence (P08908 1-422)": "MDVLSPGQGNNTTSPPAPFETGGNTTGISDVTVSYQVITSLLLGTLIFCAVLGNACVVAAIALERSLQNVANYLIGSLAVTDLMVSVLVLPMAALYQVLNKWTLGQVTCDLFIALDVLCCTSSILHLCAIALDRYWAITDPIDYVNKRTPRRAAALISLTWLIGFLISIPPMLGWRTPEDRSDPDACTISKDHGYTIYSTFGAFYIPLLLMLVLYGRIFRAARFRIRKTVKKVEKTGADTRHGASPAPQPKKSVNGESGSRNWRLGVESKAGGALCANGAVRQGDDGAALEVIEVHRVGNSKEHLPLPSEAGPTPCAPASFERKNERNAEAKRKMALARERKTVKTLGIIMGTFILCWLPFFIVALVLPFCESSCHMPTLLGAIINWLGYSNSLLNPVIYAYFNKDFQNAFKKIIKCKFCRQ", "settings": "cited from earlier work"}, "[3]": {"tested_on": "MPTP-treated common marmosets", "assay": "Disability rating in MPTP-treated common marmosets", "assay_type": "in vivo, common marmosets (Callithrix jacchus)", "method": "as §1, §2\nDisability and dyskinesia scores: Disability and dyskinesia was assessed before, and during the last 10 minutes in every 30 min period after bifeprunox administration for up to 6 hours following drug treatment. The following disability rating scales were used:\nRating of disability: The disability of animals was scored as follows; alertness (normal 0, sleepy 2); reaction (normal 0, reduced 1, slow 2, absent 3); checking movements (present 0, reduced 1, absent 2); attention and eye movements (normal 0, abnormal 1); posture (normal 0, abnormal trunk+1, abnormal limbs+1, abnormal tail+1, or grossly abnormal 4); balance/co-ordination (normal 0, impaired 1, unstable 2, spontaneous falls 3); vocalisation (normal 0, reduced 1, absent 2); motility (normal 0, bradykinesia/hyperkinesia 1, akinesia/hyperkinesia 2). Sedation was noted if present.\nas §3"}, "[4]": {"settings": "bifeprunox 4 mg/kg po 90 min prior to L-DOPA 7.5 mg/kg po plus carbidopa 12.5 mg/kg po"}, "[5]": {"settings": "bifeprunox 4 mg/kg po alone, p<0.05, Mann Whitney"}, "[6]": {"settings": "bifeprunox 8 mg/kg po 90 min prior to L-DOPA 7.5 mg/kg po plus carbidopa 12.5 mg/kg po"}, "[7]": {"settings": "bifeprunox 8 mg/kg po alone, p<0.05, Mann Whitney"}, "[8]": {"settings": "L-DOPA 7.5 mg/kg po plus carbidopa 12.5 mg/kg po 30 min prior"}},
  "note": "“Also recorded” adds a separate entry of the source.",
  "data": [
    {"smiles": "O=c1[nH]c2cccc(N3CCN(Cc4cccc(-c5ccccc5)c4)CC3)c2o1", "note": "[bifeprunox, 7-[4-([1,1′-biphenyl]-3-ylmethyl)-1-piperazinyl]-2(3H)-benzoxazolone]", "values": [
      {"measurement": "Locomotor activity compared to L-DOPA alone and bifeprunox (4 mg/kg po) alone", "setting": "[1]; [4]", "result": "tended to increase"},
      {"measurement": "locomotor On-Time compared to the single treatments", "setting": "[1]; [4]", "result": "slightly greater than that seen after L-DOPA alone and bifeprunox"},
      {"measurement": "locomotor activity compared to baseline", "setting": "[1]; [4]", "result": "increased"},
      {"measurement": "median duration of activity (locomotor On-Time)", "setting": "[1]; [4]", "result": 390, "unit": "min/420 min"},
      {"measurement": "locomotor activity compared to vehicle administration", "setting": "[1]; bifeprunox 4 mg/kg po alone", "result": "increased"},
      {"measurement": "median duration of activity (locomotor On-Time)", "setting": "[1]; bifeprunox 4 mg/kg po alone", "result": 240, "unit": "min/420 min"},
      {"measurement": "Total locomotor activity and locomotor 'On-Time' versus vehicle", "setting": "[1]; [5]", "result": "greater than in vehicle-treated animals"},
      {"measurement": "Total locomotor activity and duration of activity (On-time) compared to bifeprunox (8 mg/kg po) alone and L-DOPA plus carbidopa alone", "setting": "[1]; [6]", "result": "not different"},
      {"measurement": "locomotor On-Time compared to bifeprunox alone", "setting": "[1]; [6]", "result": "slightly shorter than bifeprunox alone"},
      {"measurement": "locomotor activity compared to baseline", "setting": "[1]; [6]", "result": "increased"},
      {"measurement": "median duration of activity (locomotor On-Time)", "setting": "[1]; [6]", "result": 300, "unit": "min/420 min"},
      {"measurement": "locomotor activity compared to vehicle administration", "setting": "[1]; bifeprunox 8 mg/kg po alone", "result": "increased"},
      {"measurement": "median duration of activity (locomotor On-Time)", "setting": "[1]; bifeprunox 8 mg/kg po alone", "result": 345, "unit": "min/420 min"},
      {"measurement": "Total locomotor activity versus vehicle", "setting": "[1]; [7]", "result": "greater than vehicle-treated animals"},
      {"measurement": "total locomotor activity and locomotor 'On-Time' compared to L-DOPA alone", "setting": "[1]; bifeprunox 4 or 8 mg/kg po given in combination with L-DOPA", "result": "tended to increase"},
      {"measurement": "duration of activity ('on'-time) following L-DOPA", "setting": "[1]; co-administration with L-DOPA", "result": "increased"},
      {"measurement": "peak locomotor activity as observed after L-DOPA alone", "setting": "[1]; combined treatment with L-DOPA, hyperactivity was not observed", "result": "reduced"},
      {"measurement": "functional activity at dopamine D2/3 receptors", "setting": "dopamine D2/3 receptors", "result": "partial agonist"},
      {"measurement": "functional activity at serotonin 5-HT1A receptors", "setting": "[2]", "result": "partial agonist; also recorded: full agonism"},
      {"measurement": "Duration of activity (disability On-Time)", "setting": "[3]; [4]", "result": 360, "unit": "min/420 min"},
      {"measurement": "Duration of activity (disability On-Time) compared to bifeprunox alone", "setting": "[3]; [4]", "result": "tended to increase"},
      {"measurement": "disability scores over the period of the study", "setting": "[3]; [4]", "result": "decreased"},
      {"measurement": "Median duration of activity (disability On-Time)", "setting": "[3]; bifeprunox 4 mg/kg po alone", "result": 210, "unit": "min/420 min"},
      {"measurement": "disability scores compared to vehicle administration", "setting": "[3]; [5]", "result": "decreased"},
      {"measurement": "Duration of activity (disability On-Time)", "setting": "[3]; [6]", "result": 165, "unit": "min/420 min"},
      {"measurement": "Duration of activity (disability On-Time) compared to bifeprunox (8 mg/kg po) alone or L-DOPA plus carbidopa", "setting": "[3]; [6]", "result": "not different"},
      {"measurement": "disability scores", "setting": "[3]; [6]", "result": "decreased"},
      {"measurement": "Duration of activity (disability On-Time)", "setting": "[3]; bifeprunox 8 mg/kg po alone", "result": 225, "unit": "min/420 min"},
      {"measurement": "Total decrease in disability versus vehicle", "setting": "[3]; bifeprunox 8 mg/kg po alone", "result": "lower than vehicle-treated animals"},
      {"measurement": "disability scores compared to vehicle treatment", "setting": "[3]; [7]", "result": "decreased"}
    ]},
    {"smiles": "N[C@@H](Cc1ccc(O)c(O)c1)C(=O)O", "note": "[L-DOPA, L-3,4-Dihydroxyphenylalanine, reference compound]", "values": [
      {"measurement": "locomotor activity compared to vehicle administration", "setting": "[1]; [8]", "result": "increased"},
      {"measurement": "median duration of activity (locomotor On-Time)", "setting": "[1]; [8]", "result": 180, "unit": "min/420 min"},
      {"measurement": "Total locomotor activity and locomotor 'on-time' versus vehicle", "setting": "[1]; L-DOPA 7.5 mg/kg po plus carbidopa 12.5 mg/kg po, p<0.05, Mann Whitney", "result": "greater than vehicle-treated animals"},
      {"measurement": "disability 'On-Time'", "setting": "[3]; [8]", "result": 120, "unit": "min/420 min"},
      {"measurement": "time at which peak disability score was reached after administration (median)", "setting": "[3]; [8]", "result": 75, "unit": "min"},
      {"measurement": "disability scores compared to vehicle administration", "setting": "[3]; L-DOPA 7.5 mg/kg po plus carbidopa 12.5 mg/kg po 30 min prior, p<0.05, Mann Whitney", "result": "decreased"}
    ]}
  ]
}
